How the values were obtained:
[1] = biological target: T1, Cytochrome P450 1B1 (Homo sapiens, UniProt Q16678); experiment: Inhibition of human recombinant CYP1B1 using 7-ethoxyresorufin as substrate in presence of glucose-6-phosphate, glucose-6-phosphate dehydrogenase and NADPH-generating system incubated for 35 mins by fluorometry
T1 sequence (Q16678 whole entry): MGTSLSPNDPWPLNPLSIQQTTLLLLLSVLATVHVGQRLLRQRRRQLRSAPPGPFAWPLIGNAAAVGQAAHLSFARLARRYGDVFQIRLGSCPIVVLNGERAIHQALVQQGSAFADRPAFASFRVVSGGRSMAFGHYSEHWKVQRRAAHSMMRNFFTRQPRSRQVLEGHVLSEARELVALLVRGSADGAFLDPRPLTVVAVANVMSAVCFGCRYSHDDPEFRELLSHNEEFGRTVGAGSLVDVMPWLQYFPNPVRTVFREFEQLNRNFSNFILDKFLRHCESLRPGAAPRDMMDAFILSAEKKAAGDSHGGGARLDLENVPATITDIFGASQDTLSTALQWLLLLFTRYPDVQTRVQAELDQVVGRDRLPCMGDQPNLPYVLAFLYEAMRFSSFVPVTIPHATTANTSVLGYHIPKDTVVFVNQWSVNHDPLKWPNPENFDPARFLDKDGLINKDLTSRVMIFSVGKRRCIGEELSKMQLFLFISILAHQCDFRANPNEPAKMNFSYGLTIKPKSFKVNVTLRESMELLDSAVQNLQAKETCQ

[2] = biological target: T2, Cytochrome P450 1A1 (Homo sapiens, UniProt P04798); experiment: Inhibition of human recombinant CYP1A1 using 7-ethoxyresorufin as substrate in presence of glucose-6-phosphate, glucose-6-phosphate dehydrogenase and NADPH-generating system incubated for 15 mins by fluorometry; type: ADME
T2 sequence (P04798 whole entry): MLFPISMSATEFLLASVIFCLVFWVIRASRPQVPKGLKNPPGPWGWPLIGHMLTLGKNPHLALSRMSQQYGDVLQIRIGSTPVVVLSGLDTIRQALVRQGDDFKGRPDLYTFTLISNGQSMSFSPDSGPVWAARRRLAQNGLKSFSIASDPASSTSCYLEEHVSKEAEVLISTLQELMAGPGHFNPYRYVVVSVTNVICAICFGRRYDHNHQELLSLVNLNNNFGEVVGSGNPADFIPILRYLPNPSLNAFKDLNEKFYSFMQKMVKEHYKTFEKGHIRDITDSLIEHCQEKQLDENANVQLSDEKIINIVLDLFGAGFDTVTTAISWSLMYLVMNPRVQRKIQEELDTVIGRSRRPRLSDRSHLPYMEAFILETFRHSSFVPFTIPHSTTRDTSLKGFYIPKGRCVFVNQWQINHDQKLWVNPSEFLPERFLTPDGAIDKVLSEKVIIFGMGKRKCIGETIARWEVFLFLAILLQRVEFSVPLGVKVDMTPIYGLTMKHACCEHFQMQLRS

[3] = biological target: T3, Cytochrome P450 1A2 (Homo sapiens, UniProt P05177); experiment: Inhibition of human recombinant CYP1A2 using 7-ethoxyresorufin as substrate in presence of glucose-6-phosphate, glucose-6-phosphate dehydrogenase and NADPH-generating system incubated for 50 mins by fluorometry; type: ADME
T3 sequence (P05177 whole entry): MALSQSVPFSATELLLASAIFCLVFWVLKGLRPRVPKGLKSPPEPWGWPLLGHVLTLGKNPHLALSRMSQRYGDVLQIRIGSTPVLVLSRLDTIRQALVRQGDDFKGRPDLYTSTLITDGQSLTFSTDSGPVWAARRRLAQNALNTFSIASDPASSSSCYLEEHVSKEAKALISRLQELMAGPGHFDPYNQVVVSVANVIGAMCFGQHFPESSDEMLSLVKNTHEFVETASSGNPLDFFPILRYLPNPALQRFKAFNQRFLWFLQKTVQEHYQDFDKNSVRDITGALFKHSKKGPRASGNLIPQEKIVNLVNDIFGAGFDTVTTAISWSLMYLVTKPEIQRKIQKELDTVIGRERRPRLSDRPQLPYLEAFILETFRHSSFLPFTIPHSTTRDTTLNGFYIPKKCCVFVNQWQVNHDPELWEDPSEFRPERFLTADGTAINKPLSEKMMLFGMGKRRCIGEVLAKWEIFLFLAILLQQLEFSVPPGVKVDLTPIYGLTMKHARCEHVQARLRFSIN

[4] = species on record: Homo sapiens; experiment: Selectivity index, ratio of IC50 for human recombinant CYP1A1 to IC50 for human recombinant CYP1B1 using 7-ethoxyresorufin as substrate in presence of glucose-6-phosphate, glucose-6-phosphate dehydrogenase and NADPH-generating system by fluorometry
[5] = species on record: Homo sapiens; experiment: Selectivity index, ratio of IC50 for human recombinant CYP1A2 to IC50 for human recombinant CYP1B1 using 7-ethoxyresorufin as substrate in presence of glucose-6-phosphate, glucose-6-phosphate dehydrogenase and NADPH-generating system by fluorometry
[6] = biological target: T1, Cytochrome P450 1B1; experiment: Potency index, ratio of IC50 for ANF to IC50 for test compound for inhibition of human recombinant CYP1B1 using 7-ethoxyresorufin as substrate in presence of glucose-6-phosphate, glucose-6-phosphate dehydrogenase and NADPH-generating system incubated for 35 mins by fluorometry

| Structure (SMILES) | IC50 [1] [nM] | IC50 [2] [nM] | IC50 [3] [nM] | Ratio IC50 [4] | Ratio IC50 [5] | relative potency vs ANF (IC50 ratio) at 35 min [6] | selectivity ratio at 35 min ([6]; read-out: Ratio IC50) |
| --- | --- | --- | --- | --- | --- | --- | --- |
| O/N=c1\cc(-c2cccc(Cl)c2)oc2c1ccc1ccccc12 | 10.4 | 94.9 | 804 | 9.1 | 77.3 | – | – |
| O=c1cc(-c2cccc(Cl)c2)oc2c1ccc1ccccc12 | 0.49 | 5.2 | 73.6 | 10.6 | 150 | 12 | – |
| COc1cc(-c2cc(=S)c3ccc4ccccc4c3o2)cc(OC)c1OC | 18.8 | 28.2 | > 1000 | 1.5 | > 53.2 | – | – |
| O=c1cc(-c2ccc3ccccc3c2)oc2c1ccc1ccccc12 | 48.4 | 46.4 | > 1000 | 1 | > 20.7 | – | – |
| Fc1ccc(-c2cc(=S)c3ccc4ccccc4c3o2)cc1 | 13.3 | 12.3 | 42.8 | 0.9 | 3.2 | – | – |
| COc1cc(Cl)cc(-c2cc(=O)c3ccc4ccccc4c3o2)c1 | 3.2 | 164 | > 1000 | 51.2 | – | – | – |
| O=c1cc(-c2cccc(Cl)c2)sc2c1ccc1ccccc12 | 40.5 | 13.6 | 296 | 0.3 | 7.3 | – | – |
| O=C1C=C(c2cccc(Cl)c2)S(=O)(=O)c2c1ccc1ccccc21 | 250 | > 1000 | 699 | > 4 | 2.8 | – | – |
| S=c1cc(-c2cccc(Cl)c2)oc2c1ccc1ccccc12 | 9.4 | 31.7 | 304 | 3.4 | 32.4 | – | – |
| O=c1cc(-c2ccc(Cl)cc2)sc2c1ccc1ccccc12 | 51.9 | 9 | 212 | 0.2 | 4 | – | – |
| O=c1cc(-c2ccncc2)oc2c1ccc1ccccc12 | 9.3 | 18.7 | 36.4 | 2 | 3.9 | – | – |
| O=c1cc(-c2ccccc2F)sc2c1ccc1ccccc12 | 104 | 84.6 | 582 | 0.8 | 5.6 | – | – |
| O=c1cc(-c2cccc(O)c2)oc2c1ccc1ccccc12 | 14.8 | 53.1 | 91.5 | 3.6 | 6.2 | – | – |
| O=c1cc(-c2ccc(F)c(F)c2)oc2c1ccc1ccccc12 | 5.6 | 11.8 | 28.6 | 2.1 | 5.1 | – | – |
| COc1cc(-c2cc(=O)c3ccc4ccccc4c3o2)cc(OC)c1OC | 5.1 | 3 | > 1000 | 0.6 | > 196 | – | – |
| COc1cccc(-c2cc(=O)c3ccc4ccccc4c3o2)c1 | 3.8 | 35.8 | 178 | 9.4 | 46.8 | – | – |
| O=c1cc(-c2ccccc2F)oc2c1ccc1ccccc12 | 3.3 | 12.2 | 23.7 | 3.7 | 7.2 | – | – |
| O=c1cc(-c2ccc(F)cc2)oc2c1ccc1ccccc12 | 2.7 | 6.7 | 12.1 | 2.5 | 4.5 | – | – |
| O=c1cc(-c2cc(Cl)cc(Cl)c2)oc2c1ccc1ccccc12 | 4.2 | 25.5 | 157 | 6.1 | 37.4 | – | – |

| Structure (SMILES) | IC50 [1] [nM] | IC50 [2] [nM] | IC50 [3] [nM] | Ratio IC50 [4] | Ratio IC50 [5] | relative potency vs ANF (IC50 ratio) at 35 min [6] | selectivity ratio at 35 min ([6]; read-out: Ratio IC50) |
| --- | --- | --- | --- | --- | --- | --- | --- |
| O=c1cc(-c2cccnc2)oc2c1ccc1ccccc12 | 6.2 | 25.3 | 23.2 | 4.1 | 3.7 | – | – |
| O=c1cc(-c2ccccc2)sc2c1ccc1ccccc12 | 57 | 32.6 | > 1000 | 0.6 | > 17.5 | – | – |
| Fc1ccccc1-c1cc(=S)c2ccc3ccccc3c2o1 | 10.6 | 31.9 | 51.8 | 3 | 4.9 | – | – |
| O=c1cc(-c2cccc(F)c2)oc2c1ccc1ccccc12 | 2.2 | 16.7 | 62.2 | 7.6 | 28.3 | – | – |
| O/N=c1\cc(-c2ccccc2)oc2c1ccc1ccccc12 | 3.2 | 32.1 | 74.6 | 10 | 23.3 | – | – |
| S=c1cc(-c2ccccc2)oc2c1ccc1ccccc12 | 7.8 | 65.4 | 179 | 8.4 | 22.9 | – | – |
| O=c1cc(-c2ccc(Cl)cc2)oc2c1ccc1ccccc12 | 4.2 | 4.3 | 10.6 | 1 | 2.5 | – | – |
| O/N=c1\cc(-c2ccc(Cl)cc2)oc2c1ccc1ccccc12 | 8 | 44.4 | 75.2 | 5.6 | 9.4 | – | – |
| O=c1cc(-c2ccccc2Cl)sc2c1ccc1ccccc12 | 89.7 | 45.8 | > 1000 | 0.5 | > 11.1 | – | – |
| COc1cccc(-c2cc(=S)c3ccc4ccccc4c3o2)c1 | 9.1 | 72.8 | 305 | 8 | 33.5 | – | – |
| CN1CCN(c2cccc(-c3cc(=O)c4ccc5ccccc5c4o3)c2)CC1 | 24.6 | 34.6 | 762 | 1.4 | 31 | – | – |
| COc1ccc(-c2cc(=O)c3ccc4ccccc4c3o2)cc1 | 7.3 | 30.9 | 98.2 | 4.2 | 13.5 | – | – |
| Fc1cccc(-c2cc(=S)c3ccc4ccccc4c3o2)c1 | 5 | 25.1 | 134 | 5 | 26.8 | – | – |
| O=c1cc(-c2ccccn2)oc2c1ccc1ccccc12 | 3.5 | 37.9 | 25.1 | 10.8 | 7.2 | – | – |
| O=c1cc(-c2ccccc2Cl)oc2c1ccc1ccccc12 | 21.6 | 228 | 113 | 10.6 | 5.2 | – | – |
| CN1CCN(c2cc(Cl)cc(-c3cc(=O)c4ccc5ccccc5c4o3)c2)CC1 | 47.7 | 37.9 | > 1000 | 0.8 | – | – | 0.12 |
| CN(C)c1cccc(-c2cc(=O)c3ccc4ccccc4c3o2)c1 | 4.1 | 9.6 | 183 | 2.3 | 44.7 | – | – |
| O=C1C=C(c2ccccc2)S(=O)(=O)c2c1ccc1ccccc21 | 223 | 129 | 170 | 0.6 | 0.8 | – | – |

From ChEMBL document CHEMBL4376853, “Synthesis and structure-activity relationship studies of α-naphthoflavone derivatives as CYP1B1 inhibitors” (Eur J Med Chem, 2020)
